# Where two headings read alike, the source gives them in different places.
# Legend:
# [1] = molecular target: T1, full length Keap1 protein / full length NRF2 protein (Homo sapiens, UniProt Q14145); test: NRF2-Keap1 TR-FRET Assay; assay type: binding; settings: 25 nM Keap1-FlagHis and 50 nM biotin-NRF2 added
# T1 construct: full length NRF2 protein and full length Keap1 protein (Keap1 exists a dimer) are used; His
# From the text: In the NRF2-Keap1 TR-FRET (time-resolved fluorescence resonance energy transfer) assay, full length NRF2 protein and full length Keap1 protein (Keap1 exists a dimer) are used. The assay detects the ability of compound to displace the binding of FlagHis-tagged Keap1 with biotinylated, Avi-tagged NRF2 protein. Biotin-NRF2 binds to streptavidin-europium (a component of the detection mix) and Keap1-FlagHis is recognized by anti-Flag APC (allophycocyanin) antibody (also a component of the detection mix). If binding occurs between the two proteins, there will be an energy transfer from the Eu+3 (donor) at 615 nm to the APC (acceptor) at 665 nm. A potential Keap1 inhibitor will cause a reduction in the TR-FRET signal by interfering with the binding of Keap1 to NRF2.
# One hundred nanoliters of 100× compound dose response curves (serial 3-fold dilutions) in DMSO are stamped using an Echo liquid handling system (Labcyte) into 384-well, low volume, black assay plates (Greiner, #784076), with DMSO in columns 6 and 18. The top concentration of compound is located in columns 1 and 13. All reagents are diluted in assay buffer (50 mM Tris, pH 8.0, 5 mM MgCl2, 100 mM NaCl, 0.005% BSA, 1 mM DTT, and 2 mM CHAPS). The BSA, DTT, and CHAPS are added to the assay buffer on the day of assay. Using a Multidrop Combi (Thermo Electron Corporation) equipped with a metal tip dispenser, 5 ul of 25 nM Keap1-FlagHis protein is added to all wells of the compound plate, with the exception of the wells in column 18. Wells in column 18 receive 5 ul of assay buffer instead. Plates are centrifuged at 500 rpm for 1 minute, covered with a plate lid, and incubated at 37° C. for 2.25 hours. Plates are then removed from the incubator and allowed to cool to RT for 15 minutes. Five microliters of 50 nM biotin-NRF2 protein is then added to all wells of the plates and the plates are spun at 500 rpm for 1 minute, followed by incubating at 4° C. for 1.25 hours. The plates are then allowed to warm to RT for 15 minutes, followed by the addition of 10 ul of detection mix (1 nM Streptavidin Eu+ W1024 and 5 ug/ml mouse anti-DYKDDDDK IgG conjugated to SureLight APC antibody; both from Columbia Biosciences) to all wells. Plates are spun at 500 rpm for 1 minute, incubated for 1 hour at RT, and read on an Envision plate reader using a 320 nm excitation filter and 615 nm and 665 nm emission filters. Compound response (% inhibition) and potency (pIC50) are calculated based on the ratio of the two emissions (665 nm/615 nm) and then the transformed data is normalized against controls in the assay (control 1=1% DMSO in the presence of NRF2 and Keap1 protein and control 2=1% DMSO in the absence of protein). Data analysis is handled using the software package Abase XE (Surrey, United Kingdom). The % inhibition values are calculated from the ratio (transformed) data by the equation: 100−(100*(compound response−average control 2)/(average control 1−average control2)). For calculation of pIC50s, Abase XE uses a four parameter equation. pIC50 is the negative log of the IC50.
# [2] = molecular target: T2, Keap1 Kelch domain (321-609) / TAMRA-labeled 16mer NRF2 peptide (ETGE motif) (Homo sapiens, UniProt Q14145); test: NRF2-Keap1 FP Assay (Keap1 Kelch fluorescence polarization); assay type: binding; settings: 20 nM Keap1 (321-609), 8 nM Tamra labeled peptide
# T2 construct: the Kelch domain (321-609) of Keap1 is used
# T2 sequence (Q14145 321-609): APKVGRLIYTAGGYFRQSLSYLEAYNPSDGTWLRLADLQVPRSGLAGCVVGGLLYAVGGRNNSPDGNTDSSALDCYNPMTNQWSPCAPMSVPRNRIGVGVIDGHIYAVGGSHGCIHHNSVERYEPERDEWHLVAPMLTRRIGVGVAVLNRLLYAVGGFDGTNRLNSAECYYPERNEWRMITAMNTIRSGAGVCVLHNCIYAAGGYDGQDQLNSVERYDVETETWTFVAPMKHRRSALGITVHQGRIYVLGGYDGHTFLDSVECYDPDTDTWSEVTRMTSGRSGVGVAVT
# Method in brief: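 Compound dilutions (3-fold) were incubated 1 hr at room temperature with 20 nM Keap1 Kelch (321-609) and 8 nM TAMRA-labeled ETGE 16mer peptide. Buffer was 50 mM Tris pH 8.0, 100 mM NaCl, 5 mM MgCl2, 1 mM DTT, 2 mM CHAPS, 0.005% BSA. Fluorescence polarization (mP) was normalized to controls and fitted with a four-parameter equation to give pIC50.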
# [3] = system: NQO1 specific enzyme activity in BEAS-2B cells (marker for NRF2 activation); test: BEAS-2B NQO1 MTT Assay; assay type: cell-based; settings: Homo sapiens, compound incubated 48 hours, read-out: EC50 (NQO1 specific enzyme activity induction)
# Method in brief: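 BEAS-2B cells treated with compound for 48 h at 37 °C, then lysed; NQO1 activity in lysates measured kinetically by MTT reduction at A570 over 30 min. pEC50 from 3-parameter fit of ΔOD/min versus log concentration; lysate also taken for Cell Titer Glo.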
# T1 sequence (Q14145 whole entry): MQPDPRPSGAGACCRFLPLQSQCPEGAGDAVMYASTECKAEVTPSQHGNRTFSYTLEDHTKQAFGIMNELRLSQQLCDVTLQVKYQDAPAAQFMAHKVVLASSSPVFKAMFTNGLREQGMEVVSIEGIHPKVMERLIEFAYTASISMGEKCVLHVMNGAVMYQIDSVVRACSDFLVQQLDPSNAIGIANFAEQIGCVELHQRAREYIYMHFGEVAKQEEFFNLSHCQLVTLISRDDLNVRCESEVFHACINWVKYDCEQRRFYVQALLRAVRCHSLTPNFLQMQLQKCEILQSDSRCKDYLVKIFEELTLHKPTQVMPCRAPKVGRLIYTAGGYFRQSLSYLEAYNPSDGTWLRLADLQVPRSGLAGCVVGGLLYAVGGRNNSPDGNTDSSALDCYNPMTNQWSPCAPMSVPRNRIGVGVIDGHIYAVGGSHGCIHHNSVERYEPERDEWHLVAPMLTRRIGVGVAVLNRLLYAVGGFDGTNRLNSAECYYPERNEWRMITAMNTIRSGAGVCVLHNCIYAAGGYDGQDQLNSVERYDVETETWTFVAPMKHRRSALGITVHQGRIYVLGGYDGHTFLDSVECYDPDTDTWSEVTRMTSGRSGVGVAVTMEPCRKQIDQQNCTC
Structure (SMILES),IC50 [1] [nM],IC50 [2] [nM],EC50 [3] [µM],"EC50 ([3]; BEAS-2B, 48 h) [µM]"
"O=C(O)c1cnn(-c2cccc(-c3cccc(C(=O)N4C5CCC4COC5)c3F)c2)c1C1CC1 [Example 32, 5-cyclopropyl-1-[3-(2-fluoro-3-{3-oxa-8-azabicyclo[3.2.1]octane-8-carbonyl}phenyl)phenyl]-1H-pyrazole-4-carboxylic Acid]",1000 to 10000,100 to 1000,1 to 10,–
"Cc1ccnn1-c1cccc(-c2cccc(-n3ncc(C(=O)O)c3C3CC3)c2)c1 [Example 36, 5-Cyclopropyl-1-{3-[3-(5-methyl-1H-pyrazol-1-yl)phenyl]phenyl}-1H-pyrazole-4-carboxylic Acid]",1000 to 10000,100 to 1000,–,1 to 10
"Cc1ccnn1-c1cccc(-c2cccc(-n3ncc(C(=O)O)c3C3CC3)c2)c1F [Example 39, 5-cyclopropyl-1-{3-[2-fluoro-3-(5-methyl-1H-pyrazol-1-yl)phenyl]phenyl}-1H-pyrazole-4-carboxylic Acid]",1000 to 10000,100 to 1000,1 to 10,–
CC(=O)N1CCC(c2c(C(=O)O)cnn2-c2cccc(-c3cccc(C(=O)N(C)C)c3)c2)CC1 [Example 46],10000 to 100000,1000 to 10000,1 to 10,–
"CN(CC1CC1)C(=O)c1cccc(-c2cccc(-n3ncc(C(=O)O)c3C(F)(F)F)c2)c1F [Example 47, 1-(3-{3-[(cyclopropylmethyl)(methyl)carbamoyl]-2-fluorophenyl}phenyl)-5-(trifluoromethyl)-1H-pyrazole-4-carboxylic Acid]",1000 to 10000,100 to 1000,1 to 10,–
"CN(CC1CC1)C(=O)c1cccc(-c2cccc(-n3ncc(C(=O)O)c3C3CC3)c2)c1F [Example 48, 5-cyclopropyl-1-(3-{3-[(cyclopropylmethyl)(methyl)carbamoyl]-2-fluorophenyl}phenyl)-1H-pyrazole-4-carboxylic Acid]",1000 to 10000,100 to 1000,1 to 10,–
"CN(C)C(=O)c1cccc(-c2cccc(-n3ncc(C(=O)O)c3C3CC(c4ccccc4)C3)c2)c1 (stereo not drawn) [Example 49, 1-{3-[3-(dimethylcarbamoyl)phenyl]phenyl}-5-(3-phenylcyclobutyl)-1H-pyrazole-4-carboxylic Acid]",10000 to 100000,100 to 1000,1 to 10,–
"O=C(O)c1cnn(-c2cccc(-c3cccc(C4CCCO4)c3)c2)c1C1CC1 (stereo not drawn) [Example 50, 5-Cyclopropyl-1-[3′-(tetrahydro-furan-2-yl)-biphenyl-3-yl]-1H-pyrazole-4-carboxylic Acid]",> 100000,1000 to 10000,1 to 10,–

# Continued, in another order:
IC50 [1] [nM],IC50 [2] [nM],Structure (SMILES),EC50 [3] [µM],"EC50 ([3]; BEAS-2B, 48 h) [µM]"
100 to 1000,10 to 100,"CCCC1CCCN1C(=O)c1cccc(-c2cccc(-n3ncc(C(=O)O)c3C3CC3)c2)c1F (stereo not drawn) [Example 26, 5-Cyclopropyl-1-{3-[2-fluoro-3-(2-propylpyrrolidine-1-carbonyl)phenyl]phenyl}-1H-pyrazole-4-carboxylic Acid]",1 to 10,–
100 to 1000,10 to 100,"CCCC1COCCN1C(=O)c1cccc(-c2cccc(-n3ncc(C(=O)O)c3C3CC3)c2)c1F (stereo not drawn) [Example 27, 5-Cyclopropyl-1-{3-[2-fluoro-3-(3-propylmorpholine-4-carbonyl)phenyl]phenyl}-1H-pyrazole-4-carboxylic Acid]",1 to 10,–
100 to 1000,10 to 100,"O=C(O)c1cnn(-c2cccc(-c3cccc(C(=O)N4CCCC5(CCCOC5)C4)c3F)c2)c1C1CC1 (stereo not drawn) [Example 43, 5-Cyclopropyl-1-[3-(2-fluoro-3-{2-oxa-8-azaspiro[5.5]undecane-8-carbonyl}phenyl)phenyl]-1H-pyrazole-4-carboxylic Acid]",1 to 10,–
100 to 1000,10 to 100,"O=C(O)c1cnn(-c2cccc(-c3cccc(C(=O)N4CCOC5(CCCC5)C4)c3F)c2)c1C1CC1 [Example 44, 5-cyclopropyl-1-[3-(2-fluoro-3-{6-oxa-9-azaspiro[4.5]decane-9-carbonyl}phenyl)phenyl]-1H-pyrazole-4-carboxylic Acid]",1 to 10,–
